Reference: ChEMBL document CHEMBL4304775, “Identification and characterization of a novel chemotype for human TLR8 inhibitors” (Eur J Med Chem, 2019)
Active and inactive are the calls of the source. The calls are words filed in the database; no cut-off is given here.

What was measured:
Type in all cases: cell-based
[1] = biological target: Toll-like receptor 4 (Homo sapiens) (UniProt O00206); assay: […] at TLR4 in human THP1 cells assessed as inhibition of LPS-induced IL-8 secretion preincubated for 1 hr followed by LPS-stimulation and measured after 24 hrs by ELISA
Chain of Toll-like receptor 4 (Homo sapiens) (O00206 whole entry): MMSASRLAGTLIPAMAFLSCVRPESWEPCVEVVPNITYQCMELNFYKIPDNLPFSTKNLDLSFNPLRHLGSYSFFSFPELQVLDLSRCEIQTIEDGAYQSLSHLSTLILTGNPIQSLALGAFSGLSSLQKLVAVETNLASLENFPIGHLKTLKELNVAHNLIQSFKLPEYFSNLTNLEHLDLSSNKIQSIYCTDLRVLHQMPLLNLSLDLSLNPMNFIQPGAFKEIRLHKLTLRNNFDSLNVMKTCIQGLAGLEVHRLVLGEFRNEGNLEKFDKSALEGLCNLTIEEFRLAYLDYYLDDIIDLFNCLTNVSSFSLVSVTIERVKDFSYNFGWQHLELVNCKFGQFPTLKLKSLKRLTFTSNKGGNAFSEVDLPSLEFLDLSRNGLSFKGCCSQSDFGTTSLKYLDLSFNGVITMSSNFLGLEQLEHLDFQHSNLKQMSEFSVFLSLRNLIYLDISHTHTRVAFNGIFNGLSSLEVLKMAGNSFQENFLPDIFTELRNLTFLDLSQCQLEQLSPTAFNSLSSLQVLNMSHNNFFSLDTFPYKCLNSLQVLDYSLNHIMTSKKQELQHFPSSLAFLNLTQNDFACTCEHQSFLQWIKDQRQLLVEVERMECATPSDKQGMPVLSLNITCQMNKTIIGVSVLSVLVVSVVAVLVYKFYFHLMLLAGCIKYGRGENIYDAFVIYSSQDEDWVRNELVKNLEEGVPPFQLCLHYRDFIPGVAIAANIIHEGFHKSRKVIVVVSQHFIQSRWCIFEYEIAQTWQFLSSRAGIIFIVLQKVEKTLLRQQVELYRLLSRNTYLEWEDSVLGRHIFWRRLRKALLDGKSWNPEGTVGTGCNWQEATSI

[2] = test system: THP-1; assay: Cytotoxicity against human THP1 cells at 25 to 100 uM after 24 hrs by MTT assay; details: thp-1, 24 h
[3] = Cytotoxicity against human HEK-Blue cells transfected with hTLR8 at 25 to 50 uM after 24 hrs by MTT assay
[4] = Cytotoxicity against human HEK-Blue cells transfected with hTLR8 assessed as reduction in cell viability at 50 uM after 24 hrs by MTT assay
[5] = biological target: T1, Toll-like receptor 8 (Homo sapiens) (UniProt Q9NR97); assay: Antagonist activity at human TLR8 expressed in HEK-Blue cells assessed as inhibition of CL075-induced NF-kappaB activation incubated for 1 hr followed by CL075-stimulation and measured after 24 hrs by quanti-blue SEAP assay
T1 sequence (whole entry): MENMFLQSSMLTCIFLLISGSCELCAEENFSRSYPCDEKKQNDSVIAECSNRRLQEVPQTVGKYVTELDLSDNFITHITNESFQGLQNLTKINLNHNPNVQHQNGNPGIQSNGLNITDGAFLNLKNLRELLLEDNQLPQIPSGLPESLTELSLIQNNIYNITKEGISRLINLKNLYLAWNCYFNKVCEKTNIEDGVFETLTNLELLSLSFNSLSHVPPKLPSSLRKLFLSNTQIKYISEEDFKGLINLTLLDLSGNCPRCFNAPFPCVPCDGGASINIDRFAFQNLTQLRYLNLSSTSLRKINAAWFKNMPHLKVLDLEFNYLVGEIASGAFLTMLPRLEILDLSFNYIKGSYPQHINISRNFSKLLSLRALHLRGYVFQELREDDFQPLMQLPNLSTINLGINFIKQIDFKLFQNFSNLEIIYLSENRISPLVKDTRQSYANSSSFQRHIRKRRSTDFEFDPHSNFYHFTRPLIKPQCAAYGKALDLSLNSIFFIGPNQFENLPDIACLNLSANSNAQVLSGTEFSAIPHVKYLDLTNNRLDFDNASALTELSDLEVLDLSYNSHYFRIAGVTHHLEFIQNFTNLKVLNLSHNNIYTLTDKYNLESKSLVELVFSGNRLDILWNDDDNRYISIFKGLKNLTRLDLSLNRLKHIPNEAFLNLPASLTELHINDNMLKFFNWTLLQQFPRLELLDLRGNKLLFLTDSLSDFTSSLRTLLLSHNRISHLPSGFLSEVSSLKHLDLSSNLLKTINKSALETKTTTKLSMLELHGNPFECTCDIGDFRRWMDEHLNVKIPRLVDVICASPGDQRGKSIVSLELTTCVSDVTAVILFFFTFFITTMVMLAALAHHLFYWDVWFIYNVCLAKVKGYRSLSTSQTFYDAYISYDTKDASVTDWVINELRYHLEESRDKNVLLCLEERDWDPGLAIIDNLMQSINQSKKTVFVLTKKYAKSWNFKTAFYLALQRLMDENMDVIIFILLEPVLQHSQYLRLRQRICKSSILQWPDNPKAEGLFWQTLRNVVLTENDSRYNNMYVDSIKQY

[6] = test system: THP-1; assay: Cytotoxicity against human THP1 cells assessed as reduction in cell viability at 50 uM after 24 hrs by MTT assay; details: thp-1, 24 h

Row | inhibition [1] | inhibition [5] | Structure (SMILES) | Activity [2] | Activity [3] | Activity [4] | Activity [6]
1 | inactive |  | FC(F)(F)c1cc(-c2ccccc2)nc(NCc2cccs2)n1 | Non-Toxic | Non-Toxic |  | 
2 | inactive |  | CCCCNc1nc(-c2cccs2)cc(C(F)(F)F)n1 | Non-Toxic | Non-Toxic |  | 
3 | inactive | Dose-dependent effect | FC(F)(F)c1cc(-c2ccco2)nc(NCc2cccs2)n1 |  |  | Toxic | Toxic
